According to patent US20220071891A1, “Extract of Chlamydomonas Acidophila, Method for Preparing Same and Cosmetic Compositions and Dermatological Compositions Comprising Same” (Laboratoires Expanscience, priority 2018, published 2022):

Assays:
[1] = test system: epidermal keratinocytes subjected to Th2 stress; assay: qRT-PCR gene expression in keratinocytes subjected to Th2 stress; type: cell-based, human; conditions: 10 μM, 24 h preincubation, Th2 cytokine cocktail 24 h; control = 100
Method: (§1) The potential anti-allergic effects of the Chlamydomonas acidophila extract were investigated on: • Gene expression of pro-inflammatory chemokines in normal human epidermal keratinocytes (NHEK) stimulated by a mixture of Th2 cytokines (IL-4+IL-13+IL-22+TNF-α) mimicking a late-phase “atopic dermatitis” type phenotype (chronic inflammation). • Activation of human basophils induced by fMLP. This activation was measured using a specific kit and flow cytometry analysis by quantifying a specific marker of activated basophil cells (CD63) in the total population of basophils identified by expression of the CCR3 marker. In parallel, activation with the anti-FCεRI antibody was performed as a positive control.
Normal human epidermal keratinocytes were preincubated for 24 hours in the presence of the CAP extract at 0.01% dry matter (DM) or reference JAK inhibitor I at 10 μM. After preincubation, the cells were retreated with the CAP extract or reference and then the cells were stimulated with a Th2 cytokine cocktail (IL4+1L13+1L22+TNFα at 10 ng/ml) for 24 hours.
At the end of incubation, gene expression of markers of interest was assessed by qRT-PCR.

[2] = test system: keratinocytes treated with hydrogen peroxide (H2O2); assay: ROS production (DCFH-DA) in keratinocytes treated with H2O2; type: cell-based, human; conditions: 24 h preincubation, 100 μM H2O2 20 minutes
Excerpt: The evaluation of the antioxidant effect of the active agent is done through the incorporation of DCFH-DA (2′,7′-dichlorofluorescin diacetate) into cultured keratinocytes. This molecule is a non-fluorescent marker in the non-oxidized state. Under oxidizing conditions (here H2O2 stress), DCFH-DA will be degraded to DCF, a molecule that will emit fluorescence. The fluorescence measured will be proportional to the amount of reactive oxygen species produced by the cell in the presence of H2O2 and/or the extract. Normal human epidermal keratinocytes were preincubated for 24 hours in the presence of the CAP extract at 0.0001% dry matter, quercetin at 10 μM or vitamin C at 500 μM (the latter two molecules serving as antioxidant reference). The cells are then treated for 1 h in the presence of 0.5 mM DCFH-DA. Oxidation is induced by adding 100 μM H2O2 for 20 minutes. A second treatment with the tested products is performed simultaneously with H2O2 stress (at the same concentrations as the pretreatment). Finally, a measurement of the fluorescence density (DFU) corresponding to the amount of ROS is performed using a microplate reader. The significance of the results was checked by a one-way ANOVA followed by a Tuckey test (GraphPad Prism software version 5.02, GraphPad Software, San Diego Calif. USA).

human basophils = assay: Basophil activation test (Flow CAST), fMLP-stimulated; type: cell-based; conditions: whole blood, 1 μM fMLP
Method: as §1
The basophil activation test (BAT) was performed using the Flow CAST® kit (BUHLMANN, item code FKCCR).
Whole blood was preincubated for 15 minutes in the presence of the CAP extract at 0.033% and 0.1% dry matter (DM) or the references (SB202190 at 30 μM; or cromoglycate at 10 mM).
The stimulant, 1 μM fMLP, was then added and the blood was incubated for an additional 15 minutes in the presence of the labeling buffer containing a mixture of monoclonal antibodies (anti-CD63-FITC and anti-CCR3-PE).
Flow cytometry analysis was then performed to count the total population of basophils (CCR3+) and activated basophils (CCR3+/CD63+).

[3] = test system: normal human keratinocytes stimulated with PMA; assay: TNF-alpha assay in keratinocytes stimulated with PMA; type: cell-based; conditions: 0.1 μM, 24 h pretreatment; for TNF-alpha, change vs PMA: then 10 μg/ml PMA; for TNF-alpha, mean: then 10 μg/ml PMA overnight
Method: (§2) The anti-inflammatory activity of the Chlamydomonas acidophila extract according to the invention was evaluated on a model of inflammation induced on keratinocytes by PMA (phorbol 12-myristate 13-acetate) treatment. The release of the cytokines TNFα and prostaglandin E2 (PGE2) was analyzed.
(§3) Normal human epidermal keratinocytes were pretreated for 24 h with the Chlamydomonas acidophila (CAP) extract according to Example 1, at concentrations comprised between 0.0001% and 0.05% dry matter, or with the anti-inflammatory reference molecules dexamethasone at 0.1 μM or indomethacin at 0.1 μM (the latter two references serving as anti-inflammatory references for cytokines and prostaglandins, respectively).
(§4) Inflammation was then induced by addition of PMA at 10 μg/mL overnight.
(§5) A TNFα and PGE2 assay was then performed in the cell culture supernatants.
(§6) The significance of the results was checked by a one-way ANOVA followed by a Tuckey test (GraphPad Prism software version 5.02, GraphPad Software, San Diego Calif. USA).

[4] = test system: normal human keratinocytes stimulated with PMA; assay: PGE2 assay in keratinocytes stimulated with PMA; type: cell-based; conditions: 0.1 μM, 24 h pretreatment; for PGE2, change vs PMA: then 10 μg/ml PMA; for PGE2, mean: then 10 μg/ml PMA overnight
Method: as §2, §3, §4, §5, §6

[5] = test system: NiSO4-stimulated normal human keratinocytes; assay: IL8 assay in NiSO4-stimulated keratinocytes; type: cell-based; conditions: 1 μM, 24 h pretreatment, then 10 μM NiSO4 24 h
Method: Normal human epidermal keratinocytes were pretreated for 24 hours with CAP extract at 0.01% and 0.05% dry matter or with the anti-inflammatory reference molecule dexamethasone at 1 μM. The keratinocytes were then treated for 24 hours with nickel: NiSO4 at 10 μM. At the end of the incubation, the amount of IL8 produced by the cells was assessed by ELISA in the supernatants.
The concentration of IL8 assayed was normalized to the amount of total intracellular protein assessed by BC Assay.
Significance of results was statistically analyzed by a Student's t-test.

[6] = test system: cadmium-stimulated normal human keratinocytes; assay: PGE2 assay in cadmium-stimulated keratinocytes; type: cell-based; conditions: 0.1 μM, 24 h pretreatment, then 100 μM CdCl2 48 h
Method: Normal human epidermal keratinocytes were pretreated for 24 hours with the CAP extract at 0.001% and 0.01% dry matter or with the anti-inflammatory reference molecule indomethacin at […]. The keratinocytes were then treated for 48 hours with cadmium: CdCl2 at 100 μM. At the end of the incubation, the amount of PGE2 produced by the cells was assessed by ELISA in the supernatants. The concentration of PGE2 assayed was normalized to the amount of total intracellular protein assessed by BC Assay.

SMILES: CC(C)(C)c1nc2c3cc[nH]c(=O)c3c3cc(F)ccc3c2[nH]1 [JAK inhibitor]
- CCL5 Relative expression (%) [1]: 101%
- CCL27 Relative expression (%) [1]: 1436%

SMILES: O=c1c(O)c(-c2ccc(O)c(O)c2)oc2cc(O)cc(O)c12 [Quercetin, quercetin]
- ROS, change vs H2O2 ([2]; 10 μM): −92% vs H2O2
- ROS, mean ([2]; 10 μM): 7787.00 fluorescence units

SMILES: Oc1ccc(-c2nc(-c3ccncc3)c(-c3ccc(F)cc3)[nH]2)cc1 [SB202190]
- % of activated basophils (CCR3+/CD63+), mean (human basophils; 30 μM): 30.4%

SMILES: O=C1O[C@H]([C@@H](O)CO)C(O)=C1O [Vitamin C, vitamin C]
- ROS, change vs H2O2 ([2]; 500 μM): −89% vs H2O2
- ROS, mean ([2]; 500 μM): 10932.50 fluorescence units

SMILES: O=C(O)c1cc(=O)c2c(OCC(O)COc3cccc4oc(C(=O)O)cc(=O)c34)cccc2o1 [cromoglycate]
- % of activated basophils (CCR3+/CD63+), mean (human basophils; 10 μM (table; text 10 mM)): 22.3%

SMILES: C[C@@H]1C[C@H]2[C@@H]3CCC4=CC(=O)C=C[C@]4(C)[C@@]3(F)[C@@H](O)C[C@]2(C)[C@@]1(O)C(=O)CO [dexamethasone]
- TNF-alpha, change vs PMA [3]: −56% vs PMA
- TNF-alpha, mean [3]: 126.112 pg/mL
- PGE2, change vs PMA [4]: −22% vs PMA
- PGE2, mean [4]: 985.126 pg/mL
- IL8, change vs Ni [5]: −63% vs Ni
- IL8, mean [5]: 1685 pg/ml/mg protein

SMILES: COc1ccc2c(c1)c(CC(=O)O)c(C)n2C(=O)c1ccc(Cl)cc1 [indomethacin]
- TNF-alpha, change vs PMA [3]: −60%
- TNF-alpha, mean [3]: 113.266 pg/mL
- PGE2, change vs PMA [4]: −87% vs PMA
- PGE2, mean [4]: 163.031 pg/mL
- PGE2, change vs Cd [6]: −54% vs Cd
- PGE2, mean [6]: 3.874 pg/μg of protein
